How the values were obtained:
[1] = T1 relaxation time of the reporter compound; type: physicochemical; conditions: high T1 agent; 15N storage nucleus; no field or temperature printed for this value
water solubility = type: physicochemical

[2H]C([2H])(F)C([2H])([2H])[N+](C)(C)C [molecule (I)]
T1 value [1]: about 3 minutes
water solubility (water solubility): good

— US7346384B2, “Method of magnetic resonance investigation of a sample using a nuclear spin polarised MR imaging agent” (GE Healthcare AS, priority 2000, dated 2008)
